Consider seven compounds from patent US10499640B2, “Herbicidal compounds” (SYNGENTA PARTICIPATIONS AG, priority 2014, dated 2019).

Assay type in all cases: in vivo
Experiment [1] concerns Abutilon theophrasti (ABUTH). As to the kind of experiment: Pre-emergence herbicidal activity, glasshouse pot test. Set-up: key: 5=total damage to plant; 0=no damage to plant. As to conditions: Rate 1000 g/Ha; sprayed one day after sowing; evaluated after 13 days; scale 0-5. How it is done:
(§1) Seeds of a variety of test species were sown in standard soil in pots. After cultivation for one day (pre-emergence) under controlled conditions in a glasshouse (at 24/16° C., day/night; 14 hours light; 65% humidity), the plants were sprayed with an aqueous spray solution derived from the formulation of the technical active ingredient in acetone/water (50:50) solution containing 0.5% Tween 20 (polyoxyethelyene sorbitan monolaurate, CAS RN 9005-64-5). The test plants were then grown in a glasshouse under controlled conditions (at 24/16° C., day/night; 14 hours light; 65% humidity) and watered twice daily. After 13 days, the test was evaluated (5=total damage to plant; 0=no damage to plant).

Experiment [2] relates to Echinochloa crus-galli (ECHCG). The description is as above. The arrangement: key: 5=total damage to plant; 0=no damage to plant. Particulars: Rate 1000 g/Ha; sprayed one day after sowing; evaluated after 13 days; scale 0-5. How it is done:
as §1

Experiment [3] deals with Setaria faberi (SETFA). Described as above. As to conditions: Rate 1000 g/Ha; sprayed one day after sowing; evaluated after 13 days; scale 0-5. The arrangement: key: 5=total damage to plant; 0=no damage to plant. How it is done:
as §1

Experiment [4] deals with Amaranthus retroflexus (AMARE). Described as above. The arrangement: key: 5=total damage to plant; 0=no damage to plant. As to conditions: Rate 1000 g/Ha; sprayed one day after sowing; evaluated after 13 days; scale 0-5. The protocol: as §1
Experiment [5] relates to Abutilon theophrasti (ABUTH). In words: Post-emergence herbicidal activity, glasshouse pot test. The arrangement: key: 5=total damage to plant; 0=no damage to plant. Particulars: Rate 1000 g/Ha; sprayed after 8 days cultivation; evaluated after 13 days; scale 0-5. The protocol:
(§2) Seeds of a variety of test species were sown in standard soil in pots. After 8 days cultivation (post-emergence) under controlled conditions in a glasshouse (at 24/16° C., day/night; 14 hours light; 65% humidity), the plants were sprayed with an aqueous spray solution derived from the formulation of the technical active ingredient in acetone/water (50:50) solution containing 0.5% Tween 20 (polyoxyethelyene sorbitan monolaurate, CAS RN 9005-64-5). The test plants were then grown in a glasshouse under controlled conditions (at 24/16° C., day/night; 14 hours light; 65% humidity) and watered twice daily. After 13 days, the test was evaluated (5=total damage to plant; 0=no damage to plant).

Experiment [6] has as its system Zea mays (ZEAMX). The experiment is described as above. The arrangement: key: 5=total damage to plant; 0=no damage to plant. Particulars: Rate 1000 g/Ha; sprayed after 8 days cultivation; evaluated after 13 days; scale 0-5. How it is done:
as §2

The subject of experiment [7] is Echinochloa crus-galli (ECHCG). The description is as above. The arrangement: key: 5=total damage to plant; 0=no damage to plant. As to conditions: Rate 1000 g/Ha; sprayed after 8 days cultivation; evaluated after 13 days; scale 0-5. How it is done:
as §2

Experiment [8] relates to Setaria faberi (SETFA). Described as above. The arrangement: key: 5=total damage to plant; 0=no damage to plant. As to conditions: Rate 1000 g/Ha; sprayed after 8 days cultivation; evaluated after 13 days; scale 0-5. How it is done:
as §2

Experiment [9] has as its system Amaranthus retroflexus (AMARE). Described as above. Particulars: Rate 1000 g/Ha; sprayed after 8 days cultivation; evaluated after 13 days; scale 0-5. The arrangement: key: 5=total damage to plant; 0=no damage to plant. The protocol: as §2
The test system of experiment [10] is Zea mays (ZEAMX). In words: Pre-emergence herbicidal activity, glasshouse pot test. Particulars: Rate 1000 g/Ha; sprayed one day after sowing; evaluated after 13 days; scale 0-5. How it is done:
as §1

The structures appear in SMILES notation.

As for `CN1CC(O)N(c2cc(C(C)(C)O)on2)C1=O` (centres unmarked) [Compound A11], the “ABUTH damage score, application pre-emergence” value in experiment [1] was 5. The “ECHCG damage score, application pre-emergence” value in experiment [2] was found to be 5. Further, the “SETFA damage score, application pre-emergence” value with Setaria faberi (SETFA) [3] is on record as 4. For the same compound, the “AMARE damage score, application pre-emergence” value in [4] was 5. In [5], the “ABUTH damage score, application post-emergence” value is reported as 5. In addition, the “ZEAMX damage score, application post-emergence” value in the experiment on Zea mays (ZEAMX) [6] is 3. Besides, the “ECHCG damage score, application post-emergence” value in experiment [7] is 5. The “SETFA damage score, application post-emergence” value in the experiment on Setaria faberi (SETFA) [8] is listed as 4. Also, the “AMARE damage score, application post-emergence” value in experiment [9] worked out at 5. Besides, the “ZEAMX damage score, application pre-emergence” value in the experiment with Zea mays (ZEAMX) [10] is given as 2.
Consider `COC(C)(C)c1cc(N2C(=O)N(C)CC2O)no1` (centres unmarked) [Compound A9], for which the “ABUTH damage score, application pre-emergence” value in [1] came to 5. For the same compound, the “ECHCG damage score, application pre-emergence” value in [2] is 5. In addition, in the experiment with Setaria faberi (SETFA) [3], the “SETFA damage score, application pre-emergence” value is given as 5. Also, in experiment [4], the “AMARE damage score, application pre-emergence” value came to 5. The “ABUTH damage score, application post-emergence” value in experiment [5] is 5. Besides, in the experiment with Zea mays (ZEAMX) [6], the “ZEAMX damage score, application post-emergence” value came to 5. Besides, the “ECHCG damage score, application post-emergence” value in experiment [7] is 5. Moreover, in the experiment with Setaria faberi (SETFA) [8], the “SETFA damage score, application post-emergence” value came out at 5. The “AMARE damage score, application post-emergence” value in experiment [9] is 5. The “ZEAMX damage score, application pre-emergence” value with Zea mays (ZEAMX) [10] is 3.
With `COC(C)(C)c1cc(N2C(=O)N(C)C(C)C2O)no1` (centres unmarked) [Compound A10], the “ABUTH damage score, application pre-emergence” value in experiment [1] is reported as 5. Further, the “ECHCG damage score, application pre-emergence” value in [2] is 5. For the same compound, the “SETFA damage score, application pre-emergence” value in the experiment with Setaria faberi (SETFA) [3] is reported as 5. In experiment [4], the “AMARE damage score, application pre-emergence” value came to 5. Moreover, the “ABUTH damage score, application post-emergence” value in experiment [5] is 5. Moreover, in the experiment with Zea mays (ZEAMX) [6], the “ZEAMX damage score, application post-emergence” value amounted to 5. Further, the “ECHCG damage score, application post-emergence” value in experiment [7] is 5. For the same compound, the “SETFA damage score, application post-emergence” value in the experiment with Setaria faberi (SETFA) [8] turned out to be 5. In addition, the “AMARE damage score, application post-emergence” value in experiment [9] turned out to be 5. In the experiment on Zea mays (ZEAMX) [10], the “ZEAMX damage score, application pre-emergence” value is 3.
On to `CCOC1C(O)N(c2cc(C(C)(C)OC)on2)C(=O)N1C` (centres unmarked) [Compound A14], for which the “ABUTH damage score, application pre-emergence” value in experiment [1] came to 5. For the same compound, in [2], the “ECHCG damage score, application pre-emergence” value is given as 5. For the same compound, the “SETFA damage score, application pre-emergence” value in the experiment on Setaria faberi (SETFA) [3] is recorded as 5. The “AMARE damage score, application pre-emergence” value in experiment [4] turned out to be 5. The “ABUTH damage score, application post-emergence” value in experiment [5] is reported as 5. Further, in the experiment on Zea mays (ZEAMX) [6], the “ZEAMX damage score, application post-emergence” value amounted to 4. The “ECHCG damage score, application post-emergence” value in experiment [7] came out at 5. Also, in the experiment on Setaria faberi (SETFA) [8], the “SETFA damage score, application post-emergence” value is 5. For the same compound, the “AMARE damage score, application post-emergence” value in experiment [9] is recorded as 5. Also, the “ZEAMX damage score, application pre-emergence” value in the experiment with Zea mays (ZEAMX) [10] worked out at 2.
`CC1C(O)N(c2cc(C(C)(C)F)no2)C(=O)N1C` (centres unmarked) [Compound A17]: the “ABUTH damage score, application pre-emergence” value in [1] amounted to 5. Also, the “ECHCG damage score, application pre-emergence” value in [2] was 5. Further, the “SETFA damage score, application pre-emergence” value in the experiment on Setaria faberi (SETFA) [3] turned out to be 5. The “AMARE damage score, application pre-emergence” value in experiment [4] was determined as 5. Further, in [5], the “ABUTH damage score, application post-emergence” value was found to be 5. In addition, the “ZEAMX damage score, application post-emergence” value in the experiment with Zea mays (ZEAMX) [6] turned out to be 4. Moreover, the “ECHCG damage score, application post-emergence” value in experiment [7] was 5. Besides, the “SETFA damage score, application post-emergence” value in the experiment with Setaria faberi (SETFA) [8] was 5. Also, in experiment [9], the “AMARE damage score, application post-emergence” value was determined as 5. Besides, the “ZEAMX damage score, application pre-emergence” value in the experiment with Zea mays (ZEAMX) [10] is 2.
Take `C#CCN1CC(O)N(c2cc(C(C)(C)C)on2)C1=O` (centres unmarked) [Compound A24]: the “ABUTH damage score, application pre-emergence” value in experiment [1] came out at 5. Moreover, the “ECHCG damage score, application pre-emergence” value in experiment [2] was 5. The “SETFA damage score, application pre-emergence” value in the experiment on Setaria faberi (SETFA) [3] amounted to 5. Moreover, in experiment [4], the “AMARE damage score, application pre-emergence” value is recorded as 5. The “ECHCG damage score, application post-emergence” value in experiment [7] is listed as 5. In addition, in the experiment with Zea mays (ZEAMX) [10], the “ZEAMX damage score, application pre-emergence” value is reported as 3.
Turning to `C#CCC1C(O)N(c2cc(C(C)(C)C)on2)C(=O)N1CC#C` (centres unmarked) [Compound A23], the “ABUTH damage score, application pre-emergence” value in experiment [1] came to 5. For the same compound, the “ECHCG damage score, application pre-emergence” value in experiment [2] is on record as 4. Besides, the “SETFA damage score, application pre-emergence” value with Setaria faberi (SETFA) [3] amounted to 5. For the same compound, the “AMARE damage score, application pre-emergence” value in experiment [4] is 5. Besides, the “ECHCG damage score, application post-emergence” value in [7] is 5. Besides, the “ZEAMX damage score, application pre-emergence” value with Zea mays (ZEAMX) [10] was 2.
